Assay results reported in US20240124389A1, “COMPOUND OR SALT THEREOF, LIPID PARTICLES, AND PHARMACEUTICAL COMPOSITION” (FUJIFILM Corporation, priority 2021, published 2024).

How the values were obtained:
EPO mRNA = test: mRNA encapsulation rate of EPO mRNA-encapsulating lipid particles; format: physicochemical; conditions: lipid/nucleic acid 64 wt/wt
Experimental: (§1) The compounds described in Table 1, the neutral lipid, cholesterol (product name: Cholesterol HP; NIPPON FINE CHEMICAL CO., LTD.), and 1,2-dimyristoyl-rac-glycero-3-(methylpolyoxyethylene 2000) (hereinafter, called DMG-PEG2000) (product name: SUNBRIGHT® GM-020; NOF corporation) were dissolved in ethanol at a molar ratio in Table 1 such that the total lipid concentration became 20 mmol/L, thereby obtaining an oil phase.
(§2) As the neutral lipid, 1,2-distearoyl-sn-glycero-3-phosphocholine (product name: COATSOME® MC-8080; NOF corporation) (hereinafter, DSPC), or L-α-dioleoyl phosphatidylethanolamine (Hereinafter, DOPE) (product name: COATSOME® ME-8181; NOF corporation), or 1,2-dioleoyl-sn-glycero-3-phosphocholine (hereinafter, DOPC) (product name: COATSOME® MC-8181; NOF corporation) was used.
(§3) EPO mRNA (product name: CleanCap EPO mRNA (5moU); TriLink) was diluted with 50 mmol/L citrate buffer having a pH 4 such that the weight ratio of total lipid concentration to mRNA concentration is about 16:1 to 64:1, thereby obtaining a water phase. Then, the water phase and the oil phase were mixed together using NanoAssemblr (Precision NanoSystems) such that the volume ratio of water phase:oil phase was 3:1, and the mixed solution was 1.5-fold diluted with phosphate buffered saline (PBS), thereby obtaining a dispersion liquid of mRNA lipid particles. The dispersion liquid was dialyzed with a 10% aqueous sucrose solution using a dialysis cassette (Slide-A-Lyzer G2, MWCO: 10 kD, Thermo Fisher Scientific) to remove ethanol, thereby obtaining EPO mRNA-encapsulating lipid particles.
(§4) 15 to 30 μL of a 3 mol/L aqueous sodium acetate solution and 4.5 to 9 μL of glycogen were added to 30 to 60 μL of the lipid particles retaining mRNA, and 0.75 to 1.5 mL of ethanol was added thereto, so that only the nucleic acids were precipitated while the lipid was dissolved. Then, the supernatant was removed by centrifugation. The precipitates were air-dried for 15 minutes or longer, then water was added thereto to redissolve the precipitates, and the concentration thereof was measured using Nanodrop NF1000 (Thermo Fisher Scientific), thereby quantifying the total mRNA concentration.
(§5) The mRNA concentration was quantified using a Quant-iT RiboGreen RNA Assay Kit (Thermo Fisher Scientific) according to the protocol. First, a 20×TE buffer included in the above-described kit was diluted with water, thereby obtaining a 1×TE buffer. TE represents Tris/EDTA (ethylenediaminetetraacetic acid). In order to quantify only mRNA in the outer water phase, the dispersion liquid of lipid particles retaining mRNA was 10,000-fold diluted with the 1×TE buffer. 100 μL of the 10,000-fold diluted dispersion liquid of lipid particles was put into a 96-well plate, then 100 μL of a RiboGreen reagent (reagent included in the Quanti-iT Ribogreen RNA Assay Kit described above) 2,000-fold diluted with the 1×TE buffer was added to a sample, and fluorescence (excitation wavelength: 485 nm, fluorescence wavelength: 535 nm) was measured using a plate reader Infinite F200 (TECAN), thereby quantifying the mRNA concentration in the outer water phase.
(§6) By using the quantification results of the total mRNA concentration and the mRNA concentration in the outer water phase that were obtained through the above steps, the mRNA encapsulation rate of the mRNA lipid particles was calculated according to the following Equation.
(§7) mRNA encapsulation rate (%)=(total mRNA concentration-mRNA concentration in outer water phase)/total mRNA concentration×100

[1] = Particle size of EPO mRNA-encapsulating lipid particles; format: physicochemical; conditions: lipid/nucleic acid 64 wt/wt
Experimental: as §1, §2, §3
(§8) The particle size of the mRNA-encapsulating lipid particles was measured by 10-fold diluting the dispersion liquid of lipid particle with phosphate buffered saline (PBS) using Zeta-potential & Particle size Analyzer ELS-Z2 (Otsuka Electronics Co., Ltd.).

human EPO = test: Measurement of EPO enzyme activity (EPO protein in blood plasma of mice after intravenous administration of EPO mRNA lipid particles); format: in vivo; conditions: C57BL/6J mice, tail-vein i.v., mRNA 0.1 mg/kg, plasma 20 to 24 hours, lipid/nucleic acid 64 wt/wt
Experimental: as §1, §2, §3
The dispersion liquid of mRNA lipid particles prepared in above-described <Preparation of EPO mRNA-encapsulating lipid particles> was tail-vein intravenously administered to C57BL/6J mice at a mRNA dosage of 0.1 mg/kg. 20 to 24 hours after the administration, blood was collected from the caudal vena cava, thereby obtaining blood plasma. The human EPO enzyme activity was quantified by using the obtained blood plasma and ab119522 Erythropoietin (EPO) Human Elisa Kit (Abcam.plc). The quantitative value is described as a relative amount of EPO protein in a case where Comparative Example 1 is 1.

[2] = Particle size of FLuc mRNA-encapsulating lipid particles; format: physicochemical; conditions: aminolipid 45 / DOPE 10 / cholesterol 43.5 / DMG-PEG2000 1.5 mol %, lipid/nucleic acid 32 wt/wt
Experimental: as §1, with “Table 2,” for “Table 1,”, “HP; NTPPON” for “HP; NIPPON”, “DMG-PEG2000)” for “DMG-PEG2000) (product name: SUNBRIGHT® GM-020; NOF corporation)”, “Table 2” for “Table 1”
(§9) As the neutral lipid, 1,2-distearoyl-sn-glycero-3-phosphocholine (product name: COATSOME® MC-8080; NOF corporation) was used in a case of Comparative Example 1, and L-α-dioleoylphosphatidylethanolamine (product name: COATSOME® MC-8181; NOF corporation) was used in a case other than Comparative Example 1.
as §3, with “FLuc” for “EPO”, “(5 moU);” for “(5moU);”, “19:1” for “16:1”, “64:1,” for “64:1, thereby”
as §8

FLuc mRNA = test: mRNA encapsulation rate of FLuc mRNA-encapsulating lipid particles; format: physicochemical; conditions: aminolipid 45 / DOPE 10 / cholesterol 43.5 / DMG-PEG2000 1.5 mol %, lipid/nucleic acid 32 wt/wt
Experimental: as §1, with “Table 2,” for “Table 1,”, “HP; NTPPON” for “HP; NIPPON”, “DMG-PEG2000)” for “DMG-PEG2000) (product name: SUNBRIGHT® GM-020; NOF corporation)”, “Table 2” for “Table 1”
as §9
as §3, with “FLuc” for “EPO”, “(5 moU);” for “(5moU);”, “19:1” for “16:1”, “64:1,” for “64:1, thereby”
as §4, §5, §6, §7

[3] = aminolipid 50 / DOPE 10 / cholesterol 38.5 / DMG-PEG2000 1.5 mol %
[4] = aminolipid 45 / DOPE 10 / cholesterol 43.5 / DMG-PEG2000 1.5 mol %

Row | Compound | Nucleic acid encapsulation rate (EPO mRNA; [3]) | Particle size [1, 3] | Relative amount of EPO protein (with respect to Comparative Example 1) (human EPO; [3]) | Particle size [2] | Nucleic acid encapsulation rate (FLuc mRNA) | Nucleic acid encapsulation rate (EPO mRNA; [4]) | Particle size [1, 4] | Relative amount of EPO protein (with respect to Comparative Example 1) (human EPO; [4])
1 | CCCCCC(CCCCC)COC(=O)CCCC(C)OC(=O)OCCN(CCOC(=O)OC(C)CCCC(=O)OCC(CCCCC)CCCCC)CCN(CC)CC (stereo not shown) [Example 19, Bis(2-pentylheptyl) 11-(2-(diethylamino)ethyl)-5,17-dimethyl-7,15-dioxo-6,8,14,16-tetraoxa-11-azahenicosanedio ate] | 100.0% | 147.0 nm | 1.26 |  |  |  |  | 
2 | CCCCCC(CCCCC)COC(=O)CCCC(CC)OC(=O)OCCN(CCOC(=O)OC(CC)CCCC(=O)OCC(CCCCC)CCCCC)CCN(CC)CC (stereo not shown) [Example 20, Bis(2-pentylheptyl) 11-(2-(diethylamino)ethyl)-5,17-dietyl-7,15-dioxo-6,8,14,16-tetraoxa-11-azahenicosanedioate] | 100.0% | 133.4 nm | 3.22 |  |  |  |  | 
3 | CCCCCC(CCCCC)COC(=O)CCCC(CCCC)OC(=O)OCCN(CCOC(=O)OC(CCCC)CCCC(=O)OCC(CCCCC)CCCCC)CCN(CC)CC (stereo not shown) [Example 22, Bis(2-pentylheptyl) 5,17-dibutyl-11-(2-(diethylamino)ethyl)-7,15-dioxo-6,8,14,16-tetraoxa-11-azahenicosanedioate] | 98.6% | 78.3 nm | 4.69 | 95 nm | 98.7% |  |  | 
4 | CCCCCC(CCCCC)COC(=O)CCCC(CCCCC)OC(=O)OCCN(CCOC(=O)OC(CCCCC)CCCC(=O)OCC(CCCCC)CCCCC)CCN(CC)CC (stereo not shown) [Example 23, Bis(2-pentylheptyl) 11-(2-(diethylamino)ethyl)-7,15-dioxo-5,17-dipentyl-6,8,14,16-tetraoxa-11-azahenicosanedioate] | 97.5% | 76.8 nm | 3.60 |  |  |  |  | 
5 | CCCCCCCC(CCCC(=O)OCC(CCCCC)CCCCC)OC(=O)OCCN(CCOC(=O)OC(CCCCCCC)CCCC(=O)OCC(CCCCC)CCCCC)CCN(CC)CC (stereo not shown) [Example 24, Bis(2-pentylheptyl) 11-(2-(diethylamino)ethyl)-5,17-diheptyl-7,15-dioxo-6,8,14,16-tetraoxa-11-azahenicosanedioate] | 97.9% | 80.6 nm | 1.46 |  |  |  |  | 
6 | CCCCCCC(CCCC(=O)OCCC12CC3CC(CC(C3)C1)C2)OC(=O)OCCN(CCOC(=O)OC(CCCCCC)CCCC(=O)OCCC12CC3CC(CC(C3)C1)C2)CCN(CC)CC (stereo not shown) [Example 27, Bis (2-(((3r,5r,7r)-adamantan-1-yl)ethyl)11-(2-(diethylamino)ethyl)-5,17-dihexyl-7,15-dioxo-6,8,1 4,16-tetraoxa-11-azahenicosanedioate] | 99.8% | 101.5 nm | 3.60 |  |  |  |  | 
7 | CCCCCCOC(=O)CCCC(CCCC(=O)OCCCCCC)OC(=O)OCCN(CCOC(=O)OC(CCCC(=O)OCCCCCC)CCCC(=O)OCCCCCC)CCN(CC)CC [Example 32, Dihexyl 11-(2-(diethylamino)ethyl)-5,17-bis(4-(hexyloxy)-4-oxobutyl)-7,15-dioxo-6,8,14,16-tetraoxa-11-azahenicosanedioate] | 95.5% | 165.3 nm | 4.03 |  |  |  |  | 
8 | CCCCCCCCOC(=O)CCCC(CCCC(=O)OCCCCCCCC)OC(=O)OCCN(CCOC(=O)OC(CCCC(=O)OCCCCCCCC)CCCC(=O)OCCCCCCCC)CCN(CC)CC [Example 33, Dioctyl 11-(2-(diethylamino)ethyl)-5,17-bis(4-(octyloxy)-4-oxobutyl)-7,15-dioxo-6,8,14,16-tetraoxa-1 1-azahenicosanedioate] | 88.8% | 132.8 nm | 2.70 |  |  |  |  | 
9 | CCCCCCCCCOC(=O)CCCC(CCCC(=O)OCCCCCCCCC)OC(=O)OCCN(CCOC(=O)OC(CCCC(=O)OCCCCCCCCC)CCCC(=O)OCCCCCCCCC)CCN(CC)CC [Example 34, Dinonyl 11-(2-(diethylamino)ethyl)-5,17-bis(4-(nonyloxy)-4-oxobutyl)-7,15-dioxo-6,8,14,16-tetraoxa-11-azahenicosanedioate] | 100.0% | 99.2 nm | 1.20 |  |  |  |  | 
10 | CCCCCCCOC(=O)CCCC(CCCC(=O)OCCCCCCC)OC(=O)OCCN(CCCN(CC)CC)CCOC(=O)OC(CCCC(=O)OCCCCCCC)CCCC(=O)OCCCCCCC [Example 38, Diheptyl 11-(3-(diethylamino)propyl)-5,17-bis(4-(heptyloxy)-4-oxobutyl)-7,15-dioxo-6,8,14,16-tetraox a-11-azahenicosanedioate] | 100.0% | 101.4 nm | 2.13 | 116 nm | 99.7% |  |  | 
11 | CCCCCCCCOC(=O)CCCC(CCCC(=O)OCCCCCCCC)OC(=O)OCCN(CCOC(=O)OC(CCCC(=O)OCCCCCC)CCCC(=O)OCCCCCC)CCN(CC)CC [Example 42] |  |  |  |  |  | 98.9% | 128.2 nm | 4.28
